Data published in patent US11434267B2, “Peptides having reduced toxicity that stimulate cholesterol efflux” (The Regents of the University of California, priority 2013, dated 2022).
Positions of bridges follow the written chain, without caps; N, C: chain ends. Non-standard residues stand in square brackets, D forms with d. No end group written: not given here. R8 = C=CCCCCCC[C@@](C)(N)C(=O)O; Cit = NC(=O)NCCC[C@H](N)C(=O)O; S5 = C=CCCC[C@](C)(N)C(=O)O

Tested on: C57Bl/6 mice
Assay: not given
Format: in vivo
Conditions: 300 mg/kg IP, male chow-fed C57Bl/6 mice, 4 and 6 h
Method: The high-dose cytotoxic response of ATI-5261 observed in rat, rabbit and cynomolgus monkey is additionally recapitulated in mice (FIG. 4). Male chow-fed C57bl/6 mice were injected intraperitonelly (IP) with 30 or 300 mg/kg of lipid-fee ATI-5261. Blood was collected via the retro-orbital plexus 4 h after peptide injection and plasma subsequently obtained for measurement of CPK (Panel A) and ALT and AST activities (Panel B, ALT left bars, AST, right bars). Values are means±SD, n=4 mice per group.
This example illustrates that aromatic phenylalanine residues associated with the non-polar surface of ATI-5261 contributed to the majority of the peptide toxicity (FIG. 5). […] Blood was collected via retro-orbital plexus 4 h after injection for isolation of plasma. Levels of plasma CPK (Panel A), ALT (panel B) and AST (Panel C) were determined as described in FIG. 1. Values are means±SD, n=4 mice per group.
The concentrations of plasma lipids in C57Bl/6 mice following administration of the aliphatic analogs of ATI-5261 was also determined. […] All values (mg/dl) are means±SD, n=4, determined at 4 and 6 h post treatment with peptide.

| Compound | TG elevating effect (plasma TG, cholesterol) |
| --- | --- |
| EARSKAEEWLAALRELAEELLARAKS [Peptide T5505-12] | produced low toxicity and greatly ablated TG elevating effects |
| EVRSKLEEWLAALRELAEELAARLKS [Peptide T4883-7] | further reduced cytotoxic response and TG elevating effects |
| EVRSKLEEWLAALRELAEELLARAKS [Peptide T4883-6] | further reduced cytotoxic response and TG elevating effects |
| EVRSKLEEWLAALRELAEELLARLKS [Peptide T5055-13] | greatly attenuated |
| T5505-9: ATI-5261 analog with L24A; W9L substitutions (EVRSKLEELLAALRELAEELLARAKS; synthetic amphipathic alpha-helix cholesterol efflux peptide T5505-9, LeuATI-5261 analog) | markedly reduced the increase in plasma CPK and AST as well as TG elevating activity |

Same assay, conditions: 300 mg/kg IP, male chow-fed C57Bl/6 mice, 4 h

| Compound | cytotoxic/toxic response (plasma CPK, ALT, AST) | muscle toxicity (plasma CPK activity) | plasma ALT / AST |
| --- | --- | --- | --- |
| EARSKAEEWLAALLELAEELLARAKS [Peptide T5211-2] | displayed little or no toxic responses and low TG in plasma | – | – |
| EARSKAEEWLAALRELAEELLARAKS [Peptide T5505-12] | produced low toxicity and greatly ablated TG elevating effects | – | – |
| EVNSKLEEWLAALNELAEELLARLKS [Peptide T5766-4] | – | greatly reduced the increase in CPK and TG elevating effects | – |
| EVQSKLEEWLAALQELAEELLARLKS [Peptide T5766-3] | – | greatly reduced the increase in CPK and TG elevating effects | – |
| EVRSKLEEWFAAFREFAEEFLARL [Peptide T5766-5] | appeared to reduce the toxic responses | greatly reduced muscle toxicity | – |
| EVRSKLEEWFAAFREFAEEFLARLNS [Peptide T5594-4] | – | greatly reduced muscle toxicity | – |
| EVRSKLEEWIAAIREIAEEILARLKS [Peptide T6991-1] | – | displayed little or no cytotoxic properties related to CPK elevations | – |
| EVRSKLEEWLAALRELAEELAARLKS [Peptide T4883-7] | further reduced cytotoxic response and TG elevating effects | sufficient to eliminate the residual muscle toxicity | – |
| EVRSKLEEWLAALRELAEELLARAKS [Peptide T4883-6] | further reduced cytotoxic response and TG elevating effects | sufficient to eliminate the residual muscle toxicity | – |
| EVRSKLEEWLAALRELAEELLARLKS [Peptide T5055-13] | – | residual toxicity | – |
| EVRSKLQEWFAAFREFAQEFLARLKS [Peptide T5554-1] | produced a large increase in the toxic response | – | – |
| T5505-9: ATI-5261 analog with L24A; W9L substitutions (EVRSKLEELLAALRELAEELLARAKS; synthetic amphipathic alpha-helix cholesterol efflux peptide T5505-9, LeuATI-5261 analog) | – | markedly reduced the increase in plasma CPK and AST as well as TG elevating activity | markedly reduced the increase in plasma CPK and AST as well as TG elevating activity |
| T5554-4: E→Q analog bearing citrulline substitutions (EV[Cit]SKLQEWFAAFREFAEEFLARLKS) [Peptide T5554-4] | retained strong toxic (CPK, ALT, and AST) and TG elevating responses | – | – |
| T5554-5: E→Q analog bearing citrulline substitutions, net charge −1 (EV[Cit]SKLQEWFAAF[Cit]EFAQEFLARLKS) [Peptide T5554-5] | retained strong toxic (CPK, ALT, and AST) and TG elevating responses | – | – |
| T5594-5: ATI-5261 analog with all lysine residues (R>K substitutions) (EVKSKLEEWFAAFKEFAEEFLAKLKS; synthetic amphipathic alpha-helix cholesterol efflux peptide T5594-5, ATI-5261 analog) | displayed cytotoxic and TG elevating activity | – | – |

Tested on: not given
Assay: not given
Conditions: scaled values = (raw log(P) + 2.061)/4.484; cited from earlier work

| Compound | Hydrophobicity |
| --- | --- |
| C[C@H](N)C(=O)O [Alanine] | 0.616 |
| N=C(N)NCCC[C@H](N)C(=O)O [Arginine] | 0.000 |
| NC(=O)C[C@H](N)C(=O)O [Asparagine] | 0.236 |
| N[C@@H](CCC(=O)O)C(=O)O [Glutamate] | 0.043 |
| NCC(=O)O [Glycine] | 0.501 |
| N[C@@H](Cc1c[nH]cn1)C(=O)O [Histidine] | 0.165 |
| CC[C@H](C)[C@H](N)C(=O)O [Isoleucine] | 0.943 |
| NCCCC[C@H](N)C(=O)O [Lysine] | 0.283 |
| CSCC[C@H](N)C(=O)O [Methionine] | 0.738 |
| N[C@@H](Cc1ccccc1)C(=O)O [Phenylalanine] | 1.00 |
| O=C(O)[C@@H]1CCCN1 [Proline] | 0.711 |
| C[C@@H](O)[C@H](N)C(=O)O [Threonine] | 0.450 |
| N[C@@H](Cc1c[nH]c2ccccc12)C(=O)O [Tryptophan] | 0.878 |
| N[C@@H](Cc1ccc(O)cc1)C(=O)O [Tyrosine] | 0.880 |
| CC(C)[C@H](N)C(=O)O [Valine] | 0.825 |

Biological target: T1, ABCA1 (Mus musculus, UniProt P41233)
T1 construct: treated (18 h) with a cAMP analog to induce ABCA1 protein expression; endogenous in cells; host or cells: J774 macrophages
Assay: ABCA1-dependent cholesterol efflux from [3H]cholesterol-labeled J774 macrophages with and without cAMP
Format: cell-based
Conditions: J774, cAMP vs no cAMP; 10 μg/ml lipid-free

T1 sequence (P41233 whole entry): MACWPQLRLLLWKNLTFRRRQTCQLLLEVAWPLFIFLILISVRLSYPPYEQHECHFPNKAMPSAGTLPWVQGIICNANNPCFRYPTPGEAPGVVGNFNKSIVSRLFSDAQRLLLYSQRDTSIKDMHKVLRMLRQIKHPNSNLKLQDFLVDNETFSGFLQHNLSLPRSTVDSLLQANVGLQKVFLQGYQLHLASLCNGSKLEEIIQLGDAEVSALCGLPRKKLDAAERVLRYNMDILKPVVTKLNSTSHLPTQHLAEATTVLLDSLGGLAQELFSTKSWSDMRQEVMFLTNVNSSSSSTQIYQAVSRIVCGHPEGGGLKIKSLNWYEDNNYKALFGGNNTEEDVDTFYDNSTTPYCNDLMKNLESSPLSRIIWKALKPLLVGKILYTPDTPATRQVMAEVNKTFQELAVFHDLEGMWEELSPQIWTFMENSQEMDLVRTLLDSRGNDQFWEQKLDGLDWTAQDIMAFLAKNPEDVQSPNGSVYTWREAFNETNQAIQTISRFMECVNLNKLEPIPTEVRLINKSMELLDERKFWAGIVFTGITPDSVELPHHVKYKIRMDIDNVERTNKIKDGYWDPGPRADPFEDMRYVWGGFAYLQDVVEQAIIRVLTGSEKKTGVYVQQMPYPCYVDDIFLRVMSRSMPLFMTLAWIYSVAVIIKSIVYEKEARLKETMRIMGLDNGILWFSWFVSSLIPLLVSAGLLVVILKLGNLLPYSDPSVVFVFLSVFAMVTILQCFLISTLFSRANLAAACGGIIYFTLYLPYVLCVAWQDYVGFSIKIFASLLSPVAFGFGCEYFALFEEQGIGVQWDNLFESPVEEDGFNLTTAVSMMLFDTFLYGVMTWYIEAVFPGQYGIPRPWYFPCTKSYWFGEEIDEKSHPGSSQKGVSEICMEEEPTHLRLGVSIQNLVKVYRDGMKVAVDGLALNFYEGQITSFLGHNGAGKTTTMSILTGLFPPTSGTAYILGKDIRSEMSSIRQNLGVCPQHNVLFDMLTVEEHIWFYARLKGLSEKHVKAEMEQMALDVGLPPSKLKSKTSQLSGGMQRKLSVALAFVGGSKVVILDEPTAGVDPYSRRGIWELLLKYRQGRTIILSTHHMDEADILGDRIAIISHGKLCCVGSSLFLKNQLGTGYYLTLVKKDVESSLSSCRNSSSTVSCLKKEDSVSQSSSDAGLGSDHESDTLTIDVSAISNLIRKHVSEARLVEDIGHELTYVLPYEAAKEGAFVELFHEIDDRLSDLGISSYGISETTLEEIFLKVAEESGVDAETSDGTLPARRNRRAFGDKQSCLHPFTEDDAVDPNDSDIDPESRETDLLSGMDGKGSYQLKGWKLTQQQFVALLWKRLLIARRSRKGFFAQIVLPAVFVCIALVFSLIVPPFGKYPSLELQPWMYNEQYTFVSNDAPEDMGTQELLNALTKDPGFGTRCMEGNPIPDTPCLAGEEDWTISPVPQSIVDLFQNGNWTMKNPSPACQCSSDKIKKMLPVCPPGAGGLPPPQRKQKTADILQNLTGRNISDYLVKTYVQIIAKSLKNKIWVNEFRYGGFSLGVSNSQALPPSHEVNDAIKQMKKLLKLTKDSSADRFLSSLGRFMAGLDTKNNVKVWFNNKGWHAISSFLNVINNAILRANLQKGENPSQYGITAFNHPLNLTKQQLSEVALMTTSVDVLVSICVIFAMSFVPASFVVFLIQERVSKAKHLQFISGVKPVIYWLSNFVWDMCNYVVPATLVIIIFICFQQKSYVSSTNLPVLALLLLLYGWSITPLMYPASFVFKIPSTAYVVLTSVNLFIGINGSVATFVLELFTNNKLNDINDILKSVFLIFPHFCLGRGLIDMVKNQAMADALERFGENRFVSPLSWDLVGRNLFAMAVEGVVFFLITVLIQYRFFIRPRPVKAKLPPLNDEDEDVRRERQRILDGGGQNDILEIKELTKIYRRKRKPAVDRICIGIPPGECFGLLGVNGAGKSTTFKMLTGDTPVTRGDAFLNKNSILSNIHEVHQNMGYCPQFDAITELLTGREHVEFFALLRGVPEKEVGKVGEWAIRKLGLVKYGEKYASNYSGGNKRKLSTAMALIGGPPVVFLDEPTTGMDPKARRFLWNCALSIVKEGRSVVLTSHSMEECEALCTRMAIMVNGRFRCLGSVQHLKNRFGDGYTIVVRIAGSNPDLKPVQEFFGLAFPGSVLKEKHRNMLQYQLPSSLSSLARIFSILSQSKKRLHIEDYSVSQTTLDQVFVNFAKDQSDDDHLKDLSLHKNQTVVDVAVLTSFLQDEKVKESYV

| Compound | ABCA1-dependent cholesterol efflux activity |
| --- | --- |
| CS6256A: ATI-5261 with glutamine at positions 3 and 23 and a chemical staple (EVQSKLEEWFAAF[S5]EFAEEF[R8]AQLKS; staple 14-21) | highly dependent on ABCA1 comparable to ATI-5261 |
| CS6257: ATI-5261 with uncharged alanine at positions 3 and 23 and a chemical staple (EVASKLEEWFAAF[S5]EFAEEF[R8]AALKS; staple 14-21) | highly dependent on ABCA1 comparable to ATI-5261 |
| CS6259: leucine form of ATI-5261 with glutamine at positions 3 and 23 and a chemical staple (EVQSKLEEWLAAL[R8]ELAEEL[S5]AQLKS; staple 14-21) | highly dependent on ABCA1 comparable to ATI-5261 |
| T7983-11: Y26 analog of T6991-2 (S26→Y for 125I labeling) (EV[Cit]SKLEEWIAAI[Cit]EIAEEILARLKY) [Peptide T7983-11] | functional, mediating high-levels of cholesterol efflux in an ABCA1-dependent manner |

Biological target: T1, ABCA1
Assay: as above
Format: cell-based
Conditions: cAMP treated J774, dose response, 4 h
Source text: Suitable cholesterol efflux assays are described in, e.g., Bielicki, J. K and Oda, M. N., Biochemistry, 41:2089-2096 (2002); Jia et al., Biochem. Biophys. Res. Common., 297:206-213 (2002). In some embodiments, a polypeptide known to mediate cholesterol efflux (e.g., helix 9/10 of Apo A-I) is used to screen for additional mediators of cholesterol efflux in a cell based assay. For example, cell lines in which cholesterol efflux can be enhanced using a cAMP analog that up-regulates ABCA1 protein expression (e.g., J774 macrophages) can conveniently be used to assess the ability of a polypeptide of the present invention to mediate cholesterol efflux. The cells are incubated with labeled cholesterol (e.g., [^3H]cholesterol) under conditions appropriate for cholesterol uptake by the cells. Thus, cAMP or cAMP analogs (e.g., CPT-cAMP) are incubated with the cells for a suitable time before the initiation of cellular cholesterol efflux, i.e., prior to contacting the cells with a test polypeptide. Measurement of labeled cholesterol appearing in the medium is used to determine the cholesterol efflux mediating activity of the test polypeptide.
Aliphatic analogs of ATI-5261 lacking phenylalanine residues retained potent ABCA1 selective cholesterol efflux activity (FIG. 7). J774 macrophages were labeled (48 h) with [^3H]cholesterol and treated (18 h) with a cAMP analog to induce ABCA1 protein expression; cells incubated in the absence of cAMP (left bars) served as controls. […] Peptides were used at a concentration of 30 μg/ml, which was maximal for promoting cholesterol efflux activity. Panel B—Dependence of cholesterol efflux on the concentration of peptides. […] Results are expressed as the difference in cholesterol efflux (%/4 h) observed using cAMP treated vs. non-treated J774 cells. Values are means±SD, n=3.

| Compound | Km for cholesterol efflux [µg/mL] | peptide concentration at saturation of cholesterol efflux [µg/mL] |
| --- | --- | --- |
| T5505-9: ATI-5261 analog with L24A; W9L substitutions (EVRSKLEELLAALRELAEELLARAKS; synthetic amphipathic alpha-helix cholesterol efflux peptide T5505-9, LeuATI-5261 analog) | 0.58 | ~3 |
| T6275-5: citrulline form of LeuATI-5261 with single citrulline14→L substitution (EV[Cit]SKLEEWLAALLELAEELLARLKS) [Peptide T6275-5] | – | 3 |
| T7983-11: Y26 analog of T6991-2 (S26→Y for 125I labeling) (EV[Cit]SKLEEWIAAI[Cit]EIAEEILARLKY) [Peptide T7983-11] | – | 3 |
